In patent publication US12251383B2, “Methods and compositions for KRAS inhibitors” (The Board of Regents of the University of Texas System, priority 2019, dated 2025):

Tests used:
[1] = biological target: Rap1B (Homo sapiens, UniProt P61224); assay: MST binding, control Rap1B; details: control small GTPase
Excerpt: FIGS. 1A-1D show representative data for the predicted binding mode and measured affinity of disclosed compound 11 to KRAS. (FIG. 1A) Structure of the catalytic domain of KRAS used for the virtual screening. Lobe1 (residues 1-86) and lobe2 (residues 87-166) are highlighted in different colors, as well as switches 1 (residues 30-40) and 2 (residues 60-75). The location of the target allosteric pocket p1 is indicated. (FIG. 1B) Chemical structure of compound 11. (FIG. 1C) Predicted binding pose of compound 11, with the key residues that make polar or vdW contacts with the ligand labeled. (FIG. 1D) Microscale thermophoresis (MST) experiments indicating direct binding of compound 11 to KRAS, along with dissociation constants (KD) derived from the curves. Changes in fluorescence upon titration of […] KRAS with increasing concentration of compound are shown: KRAS^WT (red), KRAS^G12C (green), KRAS^G12D (purple) and KRAS^Q61M (blue), each bound to the non-hydrolyzable GTP analogue, guanylyl imidodiphosphate (GNP). The same experiments indicated no binding to GDP-bound KRAS^G12D and KRAS^WT as well as Rap1B, which was used as control. […]

[2] = biological target: T1, KRAS^G12D-Raf^RBD interaction (Homo sapiens, UniProt P01116, G12D); assay: Pull-down of GFP-KRAS G12D by GST-Raf RBD from cell lysates; type: binding
T1 construct: expressed in transfected cells; host or cells: BHK cells expressing GFP-RAS (lysate); GST-Raf RBD made in E. coli BL21 from a GEX plasmid
Excerpt: (§1) [formula] where P1 is polarization of free KRAS, P2 is polarization of Raf-bound KRAS, c is the total concentration of KRAS, and x the total concentration of Raf^RBD. (FIG. 2B) Amount of GFP-KRAS^G12D pulled down by GST-Raf^RBD after treatment of cell lysates with compound at the concentrations indicated (representative Westerns are shown at the top). The RBD sequence length was 1-149 and 51-131 in the fluorescence polarization and pull-down assays, respectively. (FIG. 2C) GFP fluorescence lifetime from FLIM-FRET using cells expressing GFP-KRAS^G12D alone or with RFP-Raf, with or without treatment by 1 μM compound 11. Data are shown as mean±S.E; significance estimated by one-way analysis of variance.
Pull-down. GFP-RAS with GST-tagged RAS binding domain (RBD) of cRaf^A85K (hereafter GST-Raf^RBD) pulled down to monitor RAS-Raf interaction. To prepare GST-Raf^RBD bound to agarose beads, bacteria (BL21) transfected with a previously cloned GEX plasmid were grown in selection media to OD levels of 0.5-1.0 before protein expression was initiated with IPTG (1:1000). After 4 h, the sample was centrifuged at 6000 rpm for 5 min at 4° C., the pellet was re-suspended with PBS containing 5 mM EGTA, 1% Triton X, PIC 1:50 and PMSF 1:100, and cells were lysed with cycles of freezing and thawing. The lysate was sonicated to breakup DNA, and pelleted. […]

[3] = biological target: KRAS-Raf^RBD interaction (Homo sapiens, UniProt P01116); assay: Fluorescence polarization of BGTP-γ-S KRAS with GST-Raf RBD; type: binding
Experimental: FIGS. 2A-2C show representative data pertaining to the disruption of KRAS-Raf interaction by disclosed compound 11. (FIG. 2A) Fluorescence polarization of ^BGTP-γ-SKRAS (0.5 μM) as a function of a varying concentration of GST-Raf^RBD in the absence (red) and presence (blue) of 1 μM compound 11. Shown above the curves is the KD for KRAS-Raf^RBD binding obtained by fitting the data to
as §1
Fluorescence polarization. Fluorescence polarization assay was conducted following previous reports (48, 49). KRAS was pre-loaded with the non-hydrolyzable fluorescent GTP analog BODIPY-GTP-γ-S (BGTP-γ-S; Life Technologies) using buffer-exchange in NAP-5 (GE Life Sciences) as described in the previous section. Then 0.5 μM (50 μL) of ^BGTP-γ-SKRAS was incubated with an equal volume but varying concentrations (0 to 2.5 μM) of GST-Raf^RBD (Raf RBD residues 1-149; Life Technologies) for 30 min in the dark. To determine the effect of ligand on RAS-Raf binding, KRAS was first incubated with a fixed concentration of the ligand for 30 min and then with GST-Raf^RBD. Fluorescence polarization was measured using PolarStar Optima plate reader (excitation: 485 nm, emission: 520 nm) at room temperature. GST-tag was used to increase the weight of Raf^RBD for a greater polarization. The dissociation constant for KRAS-Raf binding was determined using a quadratic ligand binding equation (48).

Rap1B, sequence (P61224 whole entry, species assumed, the tested form may be a part): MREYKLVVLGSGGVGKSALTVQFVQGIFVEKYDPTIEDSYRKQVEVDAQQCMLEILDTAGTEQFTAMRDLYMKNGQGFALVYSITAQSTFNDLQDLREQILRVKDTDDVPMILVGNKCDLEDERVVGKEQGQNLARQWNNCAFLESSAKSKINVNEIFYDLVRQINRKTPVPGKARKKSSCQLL

Row | SMILES | binding (in words) [1] | decrease in GFP-KRAS^G12D levels pulled down ([2]; at 1 μM) [%] | reduction of polarization (RAS-Raf interaction) ([3]; 1 μM compound, at 2 μM GST-Raf^RBD) [%] | reduction of affinity of KRAS to Raf^RBD ([3]; 1 μM compound, from KD of polarization curves) [fold] | effect on KRAS^G12D-Raf^RBD interaction (pull-down) ([2]; 10 μM) | effect on interaction of KRAS with GST-Raf^RBD ([3]; 20 μM compound)
1 | Cc1nn2c(N3CCN(CCO)CC3)cc(-c3ccccc3)nc2c1-c1ccccc1 [Compound 11, 2-[4-(8-methyl-3,9-diphenyl-2,6,7-triazabicyclo[4.3.0]nona-2,4,7,9-tetraen-5-yl)piperazin-1-yl]ethanol] | no binding | > 50 | > 80 | ~13 | – | –
2 | Cc1cc(N2CCN(CCO)CC2)n2nc(C)c(-c3ccccc3)c2n1 [Compound 13] | – | – | – | – | disrupts | as effectively as the parent compound
